In a melting point compilation (Tetko et al.; mined from patent text by program, amines drawn as free bases though some values may be those of a salt):

melting point [°C] | Compound
155 to 158 | CCCCOCCOc1ccc(-c2ccc3c(c2)C=C(C(=O)O)CCN3c2csc(C)n2)cc1
119 to 121 | CCCc1nn(-c2ccc(C(F)(F)F)cn2)cc1CCCCn1cc(CCC(=O)O)c(-c2ccc(F)cc2)n1
216 to 218 | CC(C)(C)Nc1ccncc1NC(=S)NC1CCCCC1
205 to 207 | Oc1ccc2ccc(OCc3nc4ccccc4s3)cc2c1
126 to 127 | C#CCn1c(I)cc(C(O)CC)c(C)c1=O (stereo not drawn)
135 to 140 | Cc1nc(-c2ccc(CCN3CCN(c4nsc5ccccc45)CC3)cc2)cs1
104 to 105 | N#Cc1ccc(-c2ccc(-c3ccco3)o2)cc1
186 to 196 | COc1ccc(Nc2nc(NC3CCCCCC3)nc(Oc3ccc(C(C)=O)cc3Cl)n2)cc1Cl
148 to 150 | CC(C)(C)OC(=O)NC(C)(C(=O)O)c1nc2ccccc2s1 (stereo not drawn)
297 to 298 | COCCn1cc2c(C3C(=O)Nc4ccc(Br)cc43)nc(NCCCN(C)C)nc2n1 (stereo not drawn)
146 to 150 | CC(C)c1cccc(C(C)C)c1NC(=O)NCC1(c2ccc3ccccc3c2)CCC1
175 | CCN(CCc1ccccc1OCc1ccccc1)c1ccc(C(=O)O)cc1
188 | CC(C)(C)OC(=O)NCCCCC(=O)Nc1cccc(C(=O)O)c1
176 to 177 | Cc1ccc(-c2ccc3c(c2)C=C(C(=O)Nc2ccc(CSc4ccccc4)cc2)CCO3)cc1
310 to 312 | COc1cccc(C=C2CCc3c2nc2ccc(C(=O)O)cn2c3=O)c1
135 to 136 | CC(=O)c1cccc(N=P(c2ccccc2)(c2ccccc2)c2ccccc2)c1
62 to 64 | COC(=O)C1=C(Cl)/C(=N/OS(=O)(=O)c2ccc(C)cc2)CC(c2ccc(Cl)c(OC)c2F)N1 (stereo not drawn)
198 to 200 | COC(=O)C1=CC=C(CC2=CCc3ccc(NC(=O)C(F)(F)F)cc32)C(OC)(OC)C1
284 to 286 | Cn1c(=O)c(-c2ccc(Cl)cc2Cl)cc2c3cc(-c4cc(N)n[nH]4)ccc3n(C)c21
139 | COc1c(OS(=O)(=O)c2ccc(C)cc2)cc2c(c1OC)C1=C(CCC1)C(N1C(=O)c3ccccc3C1=O)CC2 (stereo not drawn)
228 to 229 | CC(C)(CNC(=O)C(O)CO)c1ccc(C(=O)Nc2cn3cc(Cl)ccc3n2)cc1 (stereo not drawn)
159 to 162 | CCOC(=O)C(=CNC1=NN(c2ccc(Cl)cc2)CC1)C(=O)OCC
162 to 164 | Cc1ccc(Cc2cnc(NCCCN)[nH]c2=O)cn1
83 to 86 | Cc1cc2c(cc1C(F)(F)F)N(Cc1cccc(C(=O)O)c1)CCC[C@@H]2N(Cc1cc(C(F)(F)F)cc(C(F)(F)F)c1)c1nnn(C)n1

melting point [°C] | Compound
103 to 105 | CN1CCC(c2nn(-c3cccc(C(F)(F)F)c3)c3ccccc23)CC1
81 to 82 | ON=C(Cc1ccccc1)c1ccc(Cl)c(Cl)c1
160 to 163 | CC(C)(C)c1cc(C(=O)NCc2ccc3c(Br)c(OC(Cc4ccccc4)C(=O)O)ccc3c2)cc(C(C)(C)C)c1 (stereo not drawn)
212 to 214 | N[C@@H](CC(C(=O)O)=C1CCC1)C(=O)O
61.7 to 62.7 | CSc1ccc(F)c(C#N)c1
88 | COc1ccc2cc([C@H](C)C(=O)OCC3(C(SN=O)(C4CC4)C4CC4)CCN(C)CC3)ccc2c1
173 to 175 | c1ccc(C(CC2=NCCN2)c2ccccc2)cc1
118 to 122 | C=Cc1ccc(Nc2nc(Cl)nc(OC)n2)cc1
204 to 206 | O[C@H]1CC[C@H](n2cnc(-c3ccc(F)cc3)c2-c2ccnc(Nc3ccccc3)n2)CC1
230 to 235 | CC1CCn2nc(S(=O)(=O)Nc3c(Cl)cccc3Cl)nc2N1 (stereo not drawn)
195 to 196 | COc1cc(CNC(=O)c2oc(=O)c3ncccc3c2-c2ccc(C)cc2)cc(OC)c1OC
124 to 125 | CC(C)(C)[Si](C)(C)OC(CCCO)COc1ccc2c(=O)cc(-c3ccccc3)oc2c1 (stereo not drawn)
84 | Nc1cc(-n2nnn(CCCF)c2=O)c(F)cc1Cl
70 to 72 | CC(C)C(NC(=O)N(C)Cc1ccccn1)C(=O)NC(Cc1ccccc1)C(O)C(Cc1ccccc1)NC(=O)C(NC(=O)N(C)Cc1ccccn1)C(C)C (stereo not drawn)
91 to 94 | CCCN(CCN)CCNC(=O)c1nc(Cl)c(N)nc1N
150 to 151 | Cc1ccc(OCCCN2CCC(Cc3ccc4ccccc4n3)CC2)c2c1NC(=O)C2(C)C
93 | O=C(O)CCCCCNC(=NC(=O)OCc1ccccc1)NC(=O)OCc1ccccc1
192 to 194 | CN(C)CCn1c2ccccc2c(=NN=C2NCCS2)c2ccccc21
185 to 187 | CCCCN(CCCC)c1ccc(C=CC=Cc2ccc(C=CC3=C(C#N)C(=C(C#N)C#N)OC3(C)C)s2)c(OC)c1
153 to 155 | CNC(C)c1ccc(C2CCC(N(C)C(=O)c3ccc(Cl)cc3)CC2)cc1 (stereo not drawn)
145 | Cc1c(C(=O)O)cnn1-c1cccc(Cl)c1
178 to 179 | COC(=O)c1ccc([N+](=O)[O-])[nH]1
184 to 186 | C[Si](C)(C)c1cccc(Cl)c1C(=O)NC(c1ccccc1)n1nnc2ccccc21 (stereo not drawn)
146 | CC(=O)n1nc(SCc2ccccc2)nc1N

melting point [°C] | Compound
183 to 184 | COC(=O)c1ccc(-c2nc(-c3ccc(Cl)cc3)co2)cc1
115 to 116 | CN1C(=O)C[C@@H](c2ccccc2)[C@H]1C(=O)c1ccccc1
208 to 209 | COc1ccc(C(=O)Nc2cccc(O)c2NC(=O)c2ccc(OC)cc2)cc1
100 | Cc1cc(-c2cn(-c3cccc(OCCn4ccnc4)c3)c3ncnc(N)c23)cc(C)c1O
121 to 124 | C#Cc1c(C(C)C)cc(-c2ccccc2)nc1-c1ccc(F)cc1
75.1 to 76 | COC(=O)C(C)(Cc1ccc(OCCc2nc(-c3ccccc3)oc2C)cc1)C(=O)OC
104 to 106 | O=[N+]([O-])c1ccc(S(=O)C2CC2)cc1 (racemic)
191 to 193 | CC(C)(C)Cc1ccc(C(=O)O)cc1
175 to 179 | CC1(C)Nc2ccccc2-n2cnc(-c3nc(C4CC4)no3)c21
121 to 123 | CC(C)=NNc1ccc(OCC(C)NCC(O)COc2ccccc2C#N)nn1 (stereo not drawn)
81 to 83 | C#C[C@]1(C)CCc2c(C)c(O)c(C)c(C)c2O1
213 to 215 | Cc1c(N)ccn2nc(-c3ccccc3)nc12
172 | O=C1c2ccccc2C(=O)N1CCOc1cc(F)ccc1O
120 to 122 | COc1cccc(NC(=O)c2cccc([N+](=O)[O-])c2)c1
81 to 83 | CCC1C=C(CCN(O)C(N)=O)c2ccccc21 (stereo not drawn)
255 | COC(=O)c1ccc(C(O)(c2ccc3[nH]c(=O)cc(-c4cccc(Cl)c4)c3c2)c2cncn2C)cc1 (stereo not drawn)
89 to 90 | C[C@H]1[C@H]2O[C@H]2C(S(=O)(=O)c2ccccc2)=C[C@H](C)[C@H]1O[Si](C)(C)C(C)(C)C
104 to 106 | COc1ccc(CN(CCN(C)CCCCNC(=O)NCCSCc2csc(NC(=N)N)n2)c2ccccn2)cc1
136 to 137 | C=C(C)[C@@H]1CC(=O)[C@H](C)[C@H]1c1nc2c([nH]1)c(=O)n(CCC)c(=O)n2CCC
246 to 249 | Cc1ccc(S(=O)(=O)N=c2[nH]c3ccccc3s2)cc1
300 | CC1=CC2=C(N3CN(O)C=C3N=N2)N(c2ccccc2Cl)C1
102 to 103 | CCOC(=O)CNC(=O)Oc1c(C)n(CC)ccc1=O
158 to 159 | CC12CCC(C(=NO)C1=O)C(C)(C)O2 (stereo not drawn)
220 | CN(C)C=Nc1sc(C=O)c(Br)c1C#N

melting point [°C] | Compound
53 to 57 | COC(=O)CCCC#Cc1cc(Cl)ccc1NS(=O)(=O)c1ccc2c(c1)CCC(=O)N2
187 to 188 | CNC(=O)C1=CC(CF)(CF)Oc2ccc(Br)cc21
54 to 56 | CN(C(=O)c1ccccc1)[Si](C)(C)N(C)C(=O)c1ccccc1
113 | O=Cc1c2ccccc2cc2sccc12
158 to 160 | COc1c(N2CCC(NC(=O)OCc3ccccc3)C(C)(C)C2)c(F)cc2c(=O)c(C(=O)O)cn(C3CC3)c12 (stereo not drawn)
212 to 213 | CCCCC(Oc1c(Br)cc(-c2c3ccccc3c(Br)c3sc4ccccc4c23)cc1Br)C(=O)O (stereo not drawn)
134 to 136 | CS(=O)c1ccc(C2=C(c3ccc(F)cc3)C(=O)C(C)(C)O2)cc1 (stereo not drawn)
70 to 72 | CCCCCCCC[C@H](O)C(=O)O
160 to 162 | CCOC(=O)c1cn(-c2ccc(F)cc2F)c2c(F)c(F)c(F)c(F)c2c1=O
88.5 to 90 | CCCCCCCCCCCCSC1C=NNC1=O (stereo not drawn)
132 to 134 | O=C(NCC1Cc2c(cccc2-c2ccccc2)O1)OCc1ccccc1 (stereo not drawn)
122 | CN(C)CCCN(C=O)C1CCC2C3CCC4CCCCC4(C)C3CCC21C (stereo not drawn)
124 to 126 | Cc1nccn1Cc1nc2ccccc2n1-c1ccccc1
169 | COc1cccc(CCN2C(=O)c3cc(Cl)c(Cl)cc3C2(O)c2ccc(F)cc2)c1 (stereo not drawn)
188 to 189 | CC(=O)OCC(C)(C)c1ccc(S(=O)(=O)Nc2ncnc(Cl)c2-c2ccc(C)cc2)cc1
116 to 121 | CC(=O)NC1CCCCC1CCC(=O)O (stereo not drawn)
188 to 190 | O=C1CCc2ccc3ncoc3c21
> 108 | O=c1[nH]c2ncncc2s1
259 to 261 | O=C1Nc2ccc([N+](=O)[O-])cc2C(=O)N2CCC[C@@H]12
152 to 155 | Cc1ccc(N2CCN(c3c(C)c(C)c4c(c3C)CC(C)(CO)O4)CC2)cc1 (stereo not drawn)
100 to 102 | CCOC(=O)CNc1c(C#N)cnn1-c1ccc(C(F)(F)F)cc1Cl
210 to 211 | CC(C)c1c(C(=O)c2cccc(C=CC#N)c2)[nH]c(=O)[nH]c1=O
203 to 208 | CC(Cc1c[nH]c2ccccc12)(NC(=O)OC1C2CC3CC(C2)CC1C3)C(=O)NC1(C(=O)O)CCCCC1 (stereo not drawn)
153 to 154 | CCCCCC(=O)c1c[nH]c2ccccc12

Compound | melting point [°C]
CN1CC2(c3cccc(O)c3)CCCC1C2 (stereo not drawn) | 144 to 146
COc1ccc(C(=O)Nc2ccccc2CC2CCCCN2)cc1 (stereo not drawn) | 108 to 109
